Legend:
[1] = tested on: synovial lining cells; settings: human
[2] = target: connexin 43 (Homo sapiens, UniProt P17302); settings: Leybaert et al. 2003; cited from earlier work
[3] = tested on: effect of IL-1 on synovial cells; settings: cited from earlier work

Sequence of connexin 43 (P17302 2-382 limits assumed): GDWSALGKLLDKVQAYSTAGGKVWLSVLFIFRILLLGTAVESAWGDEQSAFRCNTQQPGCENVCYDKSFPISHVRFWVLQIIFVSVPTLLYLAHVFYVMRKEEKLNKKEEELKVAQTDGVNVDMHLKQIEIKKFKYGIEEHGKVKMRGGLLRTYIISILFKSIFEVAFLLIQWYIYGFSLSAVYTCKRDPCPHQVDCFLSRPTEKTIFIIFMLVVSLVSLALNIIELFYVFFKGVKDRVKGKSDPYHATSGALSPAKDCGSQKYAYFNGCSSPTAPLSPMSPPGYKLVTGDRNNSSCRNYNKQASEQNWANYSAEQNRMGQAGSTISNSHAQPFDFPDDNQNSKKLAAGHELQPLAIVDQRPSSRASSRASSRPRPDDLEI

Row | Compound | concentration in compositions that must not be exceeded [1] [µg/mL] | total dose that must not be exceeded [1] [mg] | block of connexin 43 [2] | interference with the effect of IL-1 on synovial cells [3]
1 | COC(=O)C1=C(C)NC(C)=C(C(=O)OC)C1c1ccccc1[N+](=O)[O-] [nifedipine] | ≤ 2000 | ≤ 2.0 | – | –
2 | CCN(CC)CCNC(=O)c1ccc(N)cc1 [procainamide] | ≤ 2000 | ≤ 2.0 | – | –
3 | VCYDKSFPISHVR [synthetic tridecapeptide, connexin 43 residue numbers 63-75, mimetic peptide] | – | – | able to block connexin 43 | –
4 | COc1ccc(CCN(C)CCCC(C#N)(c2ccc(OC)c(OC)c2)C(C)C)cc1OC (stereo not drawn) [verapamil] | ≤ 2000 | ≤ 2.0 | – | capable of interfering with the effect of IL-1 on synovial cells
5 | SRPTEKTIFII [undecapeptide, connexin 43 residue numbers 204-214, mimetic peptide] | – | – | able to block connexin 43 | –

Source: US20060269579A1, “Compositions for treating osteoarthritis” (Musculoskeletal Research LLC, priority 2005, published 2006)
